One data set deals with human mGluR5 (Homo sapiens, UniProt P41594). The experiment in a line: Cell-based functional Ca2+ mobilization assay (FDSS), potentiation of glutamate EC20 response. To be noted: H10H cell-line (HEK, recombinant human mGluR5); for Emax: glutamate EC20, maximum average response at a single concentration, percent of maximal glutamate response; for EC50: positive allosteric modulation in presence of glutamate EC20, concentration in mol/L. The text has this:
Human mGluR5a cDNA in pCMV6-XL6 mammalian expression plasmid was purchased from OriGene Technologies, Inc. (catalogue number SC326357) and subcloned into pcDNA3.1(−). Human embryonic kidney (HEK) 293A cells were then transfected with human mGluR5a pcDNA3.1(−) using LipofectAmine2000 (Invitrogen) and monoclones were selected and tested for functional response using a Ca^2+ mobilization assay. Monoclones were named for the species (“H” for human) plus the location on the plate (e.g. “10H”).
HEK cells transfected with the human mGluR5a receptor (H10H or H12H cell line) were plated at 15,000 cells/well in clear-bottomed poly-D-lysine-coated assay plates (BD Falcon) in glutamate-glutamine-free growth medium and incubated overnight at 37° C. and 5% CO2. Cell-lines used were either the H10H or H12H cell-lines expressing the human mGluR5 receptor. The following day, the growth medium was removed and the cells were washed with assay buffer containing 1× Hank's balanced salt solution (Invitrogen, Carlsbad, Calif.), 20 mM HEPES, 2.5 mM probenecid, pH 7.4 and left with 20 μL of this reagent. Following this step, the cells were loaded with calcium indicator dye, fluo-4 AM, to a final concentration of 2 μM and incubated for 40-45 min at 37° C. The dye solution was removed and replaced with assay buffer. Cell plates were held for 10-15 min at room temperature and were then loaded into the Functional Drug Screening System 6000 (FDSS 6000, Hamamatsu, Japan).
After establishment of a fluorescence baseline for about 3 seconds, the compounds of the present invention were added to the cells, and the response in cells was measured. 2.3 minutes later an EC20 concentration of the mGluR5 receptor agonist glutamate was added to the cells, and the response of the cells was measured for about 1.7 minutes. All test compounds were dissolved and diluted to a concentration of 10 mM in 100% DMSO and then serially diluted into assay buffer for a 2× stock solution in 0.6% DMSO; stock compounds were then added to the assay for a final DMSO concentration of 0.3% after the first addition to the assay well. Calcium fluorescence measures were recorded as fold over basal fluorescence; raw data was then normalized to the maximal response to glutamate. Potentiation of the agonist response of the mGluR5 receptor in the present invention was observed as an increase in response to submaximal concentrations of glutamate in the presence of compound compared to the response to glutamate in the absence of compound.
The concentration-response curves of compounds of the present invention, obtained in the presence of EC20 of mGluR5 receptor agonist glutamate to determine positive allosteric modulation, were generated using Microsoft Excel with IDBS XLFit add-ins. The raw data file containing all time points was used as the data source in the analysis template. This was saved by the FDSS as a tab-delimited text file. Data were normalized using a static ratio function (F/F0) for each measurement of the total 350 values per well divided by each well's initial value. Data was then reduced as to peak amplitudes (Max-Initial Min) using a time range that starts approximately 1 second after the glutamate EC20 addition and continues for approximately 40 seconds. This is sufficient time to capture the peak amplitude of the cellular Calcium response. Individual amplitudes were expressed as % EMax by multiplying each amplitude by 100 and then dividing the product by the mean of the amplitudes derived from the glutamate ECMax-treated wells. pEC50 values for test compounds were generated by fitting the normalized values versus the log of the test compound concentration (in mol/L) using a 4 parameter logistic equation where none of the parameters were fixed. Each of the three values collected at each concentration of test compound were weighted evenly. Individual values falling outside the 95% prediction limits of the curve fit were automatically excluded from the fit. […]
For orientation: A change in cytosolic calcium serves as a functional read-out for many receptors and channels.

SMILES strings stand for the structures.

Sequence of human mGluR5 (P41594 21-1180 isoform P41594-2 limits assumed): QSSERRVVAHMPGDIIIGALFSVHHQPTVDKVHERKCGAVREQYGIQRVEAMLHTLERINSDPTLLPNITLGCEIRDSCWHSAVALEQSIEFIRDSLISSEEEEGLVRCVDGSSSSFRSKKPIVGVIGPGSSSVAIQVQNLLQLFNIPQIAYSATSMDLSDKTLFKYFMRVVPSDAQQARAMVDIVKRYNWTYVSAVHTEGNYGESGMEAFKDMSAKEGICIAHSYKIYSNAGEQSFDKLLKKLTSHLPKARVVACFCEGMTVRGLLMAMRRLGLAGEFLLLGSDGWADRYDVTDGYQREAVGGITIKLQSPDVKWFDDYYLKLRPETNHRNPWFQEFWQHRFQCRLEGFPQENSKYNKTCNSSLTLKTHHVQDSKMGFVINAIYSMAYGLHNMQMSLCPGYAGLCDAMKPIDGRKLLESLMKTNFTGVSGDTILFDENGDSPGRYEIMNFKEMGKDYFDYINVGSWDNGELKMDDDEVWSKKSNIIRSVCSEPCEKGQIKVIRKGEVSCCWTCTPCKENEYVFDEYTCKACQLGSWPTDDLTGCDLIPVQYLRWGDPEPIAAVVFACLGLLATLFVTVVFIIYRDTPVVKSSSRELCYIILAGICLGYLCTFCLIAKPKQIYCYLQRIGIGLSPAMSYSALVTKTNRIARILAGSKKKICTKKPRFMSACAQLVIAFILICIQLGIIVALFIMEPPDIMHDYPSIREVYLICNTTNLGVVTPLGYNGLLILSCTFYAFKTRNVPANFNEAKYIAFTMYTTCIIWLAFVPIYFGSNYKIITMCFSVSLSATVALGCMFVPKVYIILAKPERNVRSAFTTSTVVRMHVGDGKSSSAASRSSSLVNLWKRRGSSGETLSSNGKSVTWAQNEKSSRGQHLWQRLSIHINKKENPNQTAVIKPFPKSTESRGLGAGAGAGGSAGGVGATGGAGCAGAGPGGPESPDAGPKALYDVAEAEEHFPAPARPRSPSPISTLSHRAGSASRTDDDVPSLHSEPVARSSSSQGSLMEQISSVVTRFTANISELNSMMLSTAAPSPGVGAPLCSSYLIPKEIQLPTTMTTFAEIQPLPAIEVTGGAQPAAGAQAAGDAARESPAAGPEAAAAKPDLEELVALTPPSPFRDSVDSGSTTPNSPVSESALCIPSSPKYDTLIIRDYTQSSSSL

As a reminder, the Emax is the size of the effect at its maximum, as opposed to the concentration needed. By EC50 is commonly meant the concentration that produces a half-maximal response. As a reminder, the melting point is the temperature of the solid-liquid transition. For `CC1CN([C@H](C)c2ccccc2)C(=O)c2cc(COc3ccccc3)nn21` (single isomer, unassigned) [Example B4, (7*S)-7-methyl-2-(phenoxymethyl)-5-[(1R)-1-phenylethyl]-6,7-dihydropyrazolo[1,5-a]pyrazin-4(5H)-one], the melting point was determined as 132 °C. On human mGluR5, the Emax is 68.5% and the EC50 is 55 nM.
Turning to `CC1CN(Cc2ccccc2)C(=O)c2cc(COc3cccc(F)c3)nn21` (single isomer, unassigned) [Example B10, (7*S)-5-benzyl-2-[(3-fluorophenoxy)methyl]-7-methyl-6,7-dihydropyrazolo[1,5-a]pyrazin-4(5H)-one], on human mGluR5, the Emax came to 70.5% and the half-maximal effective concentration (EC50) is 69.2 nM.
`CC1CN(Cc2ccccc2)C(=O)c2cc(COc3ccccc3)nn21` (single isomer, unassigned) [Example B14] had a melting point of 97.7 °C. For the same molecule, at human mGluR5, the Emax came out at 69.5% and the EC50 is 60.3 nM.
For the molecule `CC1CN(Cc2ccccc2)C(=O)c2cc(COc3cccc(C#N)c3)nn21` (single isomer, unassigned) [Example B53], on human mGluR5, the Emax is 65% and the EC50 is 525 nM.
As for `CC1CN(Cc2ccccc2)C(=O)c2cc(COc3ccc(F)cc3)nn21` (single isomer, unassigned) [Example B54], on human mGluR5, the Emax came out at 69.5% and the EC50 is 93.3 nM.
Regarding `Cc1cccc(OCc2cc3n(n2)C(C)CN(Cc2ccccc2)C3=O)c1` (single isomer, unassigned) [Example B55], the Emax at human mGluR5 was determined as 69.5%.
The molecule `COc1cccc(CN2CCn3nc(COc4ccccc4)cc3C2=O)n1` [Example B1, 5-[(6-methoxypyridin-2-yl)methyl]-2-(phenoxymethyl)-6,7-dihydropyrazolo[1,5-a]pyrazin-4(5H)-one] had a melting point of 97.7 °C. Further, on human mGluR5, the Emax stood at 68% and the EC50 is 91.2 nM.
The like results for `O=C1c2cc(COc3ccccc3)nn2CCCN1Cc1ccccc1` [Example B2, 5-benzyl-2-(phenoxymethyl)-5,6,7,8-tetrahydro-4H-pyrazolo[1,5-a][1,4]diazepin-4-one] were, in that order, 94.6 °C, 64% and 87.1 nM.
The corresponding values for `Cc1cccc(CN2CCn3nc(COc4ccccc4)cc3C2=O)n1` [Example B3, 5-[(6-methylpyridin-2-yl)methyl]-2-(phenoxymethyl)-6,7-dihydropyrazolo[1,5-a]pyrazin-4(5H)-one] are 113.4 °C, 68% and 302 nM.
The like results for `O=C1c2cc(COc3ccccc3)nn2CCN1Cc1ccc(F)cn1` [Example B5, 5-[(5-fluoropyridin-2-yl)methyl]-2-(phenoxymethyl)-6,7-dihydropyrazolo[1,5-a]pyrazin-4(5H)-one] were, in that order, 126.5 °C, 69% and 550 nM.
For `O=C1c2cc(COc3ccccc3)nn2CCN1Cc1ncccc1Cl` [Example B6, 5-[(3-chloropyridin-2-yl)methyl]-2-(phenoxymethyl)-6,7-dihydropyrazolo[1,5-a]pyrazin-4(5H)-one], on human mGluR5, the Emax was found to be 76% and the EC50 is 120 nM.
`O=C1c2cc(COc3ccccc3)nn2CCN1Cc1ccccc1` [Example B7, 5-benzyl-2-(phenoxymethyl)-6,7-dihydropyrazolo[1,5-a]pyrazin-4(5H)-one]: the melting point worked out at 91.5 °C. Moreover, at human mGluR5, the Emax amounted to 69% and the 50% effective concentration (EC50) is 49 nM.
Regarding `C[C@H](c1ccccc1)N1CCn2nc(COc3ccccc3)cc2C1=O` [Example B8, 2-(phenoxymethyl)-5-[(1R)-1-phenylethyl]-6,7-dihydropyrazolo[1,5-a]pyrazin-4(5H)-one], on human mGluR5, the Emax was 59.5% and the EC50 is 30.9 nM.
As to `O=C1c2cc(COc3ccccn3)nn2CCN1Cc1ccccc1` [Example B9, 5-benzyl-2-[(pyridin-2-yloxy)methyl]-6,7-dihydropyrazolo[1,5-a]pyrazin-4(5H)-one], the melting point is 124.7 °C. Moreover, at human mGluR5, the Emax turned out to be 62% and the EC50 is 347 nM.
Molecule `O=C1c2cc(COc3cccc(F)c3)nn2CCN1Cc1ccccc1` [Example B11, 5-benzyl-2-[(3-fluorophenoxy)methyl]-6,7-dihydropyrazolo[1,5-a]pyrazin-4(5H)-one] registered a melting point of 104.9 °C. At human mGluR5, the Emax came to 63% and the EC50 was 46.8 nM.
In turn, `COc1cnc(CN2CCn3nc(COc4ccccc4)cc3C2=O)nc1` [Example B12] came in with a melting point of over 300 °C. For the same molecule, at human mGluR5, the Emax was determined as 59.5% and the EC50 is 30.9 nM.
Turning to `CC(c1cccnc1)N1CCn2nc(COc3ccccc3)cc2C1=O` (centres unmarked) [Example B13], the melting point was > 300 °C (dec.). Besides, at human mGluR5, the Emax amounted to 60% and the EC50 was 1660 nM.
`O=C1c2cc(COc3ccccc3)nn2CCN1Cc1ccccn1` [Example B17]: the melting point turned out to be 75.3 °C. Moreover, on human mGluR5, the Emax amounted to 69.5% and the EC50 is 1120 nM.
Molecule `O=C1c2cc(COc3ccccc3)nn2CCN1Cc1cccnc1` [Example B18] had a melting point of 123.4 °C. Further, at human mGluR5, the Emax is 63% and the EC50 was 1910 nM.
For the molecule `COc1ccc(CN2CCn3nc(COc4ccccc4)cc3C2=O)cc1` [Example B34], on human mGluR5, the Emax is 69% and the EC50 is 209 nM.
As for `COc1ccccc1CN1CCn2nc(COc3ccccc3)cc2C1=O` [Example B38], on human mGluR5, the Emax is 63.5% and the concentration for a half-maximal effect (EC50) was 40.7 nM.
Regarding `N#Cc1cccc(OCc2cc3n(n2)CCN(Cc2ccccc2)C3=O)c1` [Example B43], at human mGluR5, the Emax is 53% and the EC50 is 380 nM.
Take `C[C@@H]1Cn2nc(COc3cccc(F)c3)cc2C(=O)N1Cc1ccccc1` [Example B49]: on human mGluR5, the maximal effect (Emax) stood at 73% and the EC50 is 93.3 nM.
Turning to `C[C@@H]1Cn2nc(COc3ccccn3)cc2C(=O)N1Cc1ccccc1` [Example B56], on human mGluR5, the Emax is 70% and the EC50 was 1000 nM.
The like results for `Cc1cccc(OCc2cc3n(n2)C[C@@H](C)N(Cc2ccccc2)C3=O)c1` [Example B57] were, in that order, 64.5% and 186 nM.
On to `C[C@@H]1Cn2nc(COc3cccc(C#N)c3)cc2C(=O)N1Cc1ccccc1` [Example B58], for which, on human mGluR5, the Emax was found to be 59% and the EC50 is 468 nM.
`COc1cccc(CN2CCn3nc(COc4ccccc4)cc3C2=O)c1F` [Example B59]: at human mGluR5, the Emax was found to be 71% and the EC50 was 107 nM.
On to `COc1cccc(CN2CCn3nc(COc4ccccc4)cc3C2=O)c1Cl` [Example B60], for which, on human mGluR5, the Emax stood at 75.5% and the EC50 was 79.4 nM.
On to `COc1ccc(F)cc1CN1CCn2nc(COc3ccccc3)cc2C1=O` [Example B61], for which, at human mGluR5, the Emax stood at 66% and the EC50 is 85.1 nM.
For the molecule `O=C1c2cc(COc3ccccc3)nn2CCN1Cc1ncc(F)cn1` [Example B70], at human mGluR5, the Emax turned out to be 66% and the EC50 is 398 nM.
The like results for `O=C1c2cc(COc3ccccc3)nn2CCN1Cc1ccncc1` [Example B102] were, in that order, 68% and 1780 nM.

These data come from patent US20130345205A1, “SUBSTITUTED BICYCLIC ARALKYL PYRAZOLE LACTAM ANALOGS AS ALLOSTERIC MODULATORS OF MGLUR5 RECEPTORS” (Vanderbilt University, priority 2012, published 2013).
